# Measurements reported in publication PMC5318461 (Frontiers in Microbiology, 2017).
# Like-named read-outs stand apart in the source and are kept apart here. Numbered stars: 1 amine (or outer) side, 2 acyl side, 3 side chain; on linkers, the order of the positions; unused ones are H or OH. Bridge positions count the residues as written; N and C are the ends. Square brackets hold non-standard residues; d marks the D form. Peptide text beside a SMILES is read from it. I, II: the chains in the order shown. Actinocin(9to1) = Cc1c2oc3c(C)ccc(C(=O)[*:1])c3nc-2c(C(=O)[*:2])c(N)c1=O; NMeV = CN[C@H](C(=O)O)C(C)C; Sar = CNCC(=O)O
# What was measured:
# [1] = system: L. amazonensis promastigote; assay: Transmission electron microscopy of treated promastigotes; assay type: cell-based, Leishmania amazonensis; details: IC50 and IC90, 72 h, 25°C
# Protocol: In order to evaluate the ultrastructure changes in the treated parasites, promastigote forms were treated and fixed according described above. These samples were post-fixed with 1% OsO4 (Electron Microscopy Sciences – EMS®) and 0.8% potassium ferrocyanide (Electron Microscopy Sciences – EMS®), in the dark, during 60 min, at room temperature. This procedure increases the contrast to link with lipids. The samples were washed in 0.1 M sodium cacodylate buffer and dehydrated in increased concentration of acetone (50, 70, 80, 90, 95, 100% – Sigma–Aldrich®). All acetone content was replaced by cell diffusion for EPON^TM epoxy resin, gradually, and after 48 h, at 60°C, the resin was polymerized. Nanometric cuts (60–70 nm) were obtained on ultramicrotome (Power Tome X RMC Products), contrasted with 5% uranyl acetate (Electron Microscopy Sciences – EMS®) and 2% lead citrate (Electron Microscopy Sciences – EMS®). Finally, the samples were analyzed by transmission electron microscope (TEM) JEOL – JEM 1400.
# [2] = system: L. amazonensis promastigote; assay: Detection of lipid droplets using Nile Red dye (fluorometry); assay type: cell-based, Leishmania amazonensis
# Protocol: Parasites were prepared and standardize in accordance to item 2.8.1. Next, 5 μL of Nile Red (Sigma–Aldrich®) 1 mg/mL methanol were added to treated parasites and incubated during 30 min, at dark and room temperature. Fluorescence was measured on Perkin-Elmer Victor X3 fluorometer, at λex = 485 nm e λem = 535 ([Greenspan et al., 1985]). Nile Red is a phenoxazone dye that fluoresces intensely at yellow–gold color in the presence of triacylglycerols, cholesterol, or cholesterol esters, considered neutral lipids ([Fowler and Greenspan, 1985]).
# [3] = system: erythrocytes; assay: Hemolysis assay (hemoglobin release; alone and checkerboard combination); details: read-out: CC50 Erythrocytes; isolated drug; defibrinated sheep blood, 6% erythrocyte suspension, 2 h, 37°C; ± SD
# Protocol: (§3) Assessing the possibility of drug-induced hemolysis, the hemolytic activity was evaluated in vitro from defibrinated sheep blood, commercially obtained (Laborclin; lot n° 51109038). Erythrocyte suspension at 6% was prepared by centrifugation in 2,000 × g, for 10 min and placed in 96-wells with the different concentrations of each compound. As positive control, it used Triton X (Synth®) surfactant. After 2 h at 37°C, all samples were centrifuged for 3 min, and the supernatant was harvested to verify the hemoglobin release by the absorbance measured in 540 nm.
# [4] = system: non-infected macrophages; assay: Nitric oxide measurement (DAF-FM DA) on non-infected macrophages; assay type: cell-based; details: IC50 and IC90
# [5] = system: L. amazonensis intracellular amastigotes; assay: Activity against L. amazonensis intracellular amastigotes in peritoneal macrophages (survival index; alone and checkerboard combination); assay type: cell-based, Leishmania amazonensis; details: isolated drug, 48 h, ± SD, read-out: IC50 Intracellular amastigote
# Protocol: Furthermore, the activity of these drugs against L. amazonensis intracellular amastigotes was also evaluated. For this, intraperitoneal macrophages were harvested from the males BALB/c mice, by injection of cold phosphate-saline buffer (PBS) plus FCS 3% inner the peritoneal cavity. After centrifugation, a suspension of 5 × 10^5 macrophages in RPMI was placed on glass coverslips in 24-wells microplate and incubated during 2 h, at 37°C and 5% CO2 atmosphere, for cellular adhesion. After this period, the wells were washed and the macrophages were infected with L. amazonensis promastigotes in stationary phase (5–6 days) at a ratio of 7 parasites/1 mammalian cell, during 4 h, at 34°C and 5% CO2 tension and then, the tested compounds were added during 48 h ([Kaplum et al., 2016]). At the end of this period, the glass coverslips were subject to fixation with methanol during 10 min and stained with 10% Giemsa stain (GIBCO KaryoMax® Giemsa), for 40 min. Then, a total of 200 macrophages were counted under light microscope, distinguishing infected cells and amastigote parasites. Thereby, the survival index (SI = infected cells percentage × amastigote average per infected macrophage) was calculated considering 100% of survival for the untreated negative control (NC). It was subsequently possible to carry out the comparison with samples treated for IC50 calculation purposes.
# [6] = system: L. amazonensis promastigote; set-up: method as in Britta et al. (2014); details: ref Britta et al. (2014); cited from earlier work
# [7] = system: Leishmania amazonensis axenic amastigote; assay: In vitro activity against L. amazonensis axenic amastigotes (growth inhibition by cell counting; alone and checkerboard combination); assay type: cell-based; details: isolated drug, 72 h, 32°C, ± SD
# Protocol: Axenic amastigote forms were obtained from L. amazonensis promastigotes. For this, promastigote forms in phase log of growth were cultivated in Warren’s medium, pH 7.2, supplemented with 20% FCS and incubated at 25°C, during 48 h. Next, the parasites were maintained at 30°C, for 24 h, and at 32°C until differentiation in amastigote forms. Axenic amastigotes were maintained in Schneider insect’s medium (Sigma–Aldrich®), pH 4.6, supplemented with 20% of FCS, at 32°C ([Ueda-Nakamura et al., 2001]).
# [8] = system: J774.A1 macrophages; assay: Cytotoxicity on J774.A1 macrophages (MTT; alone and checkerboard combination); assay type: cell-based, Murine; details: isolated drug, 48 h, ± SD, read-out: CC50 J774.A1 Macrophage
# Source text: (§1) As positive control, it used Triton X (Synth®) surfactant. […] (2010)].
# [9] = system: L. amazonensis promastigote; set-up: method as in Britta et al. (2014); details: ref Britta et al. (2014); cited from earlier work; remark: listed apart in the source
# [10] = system: Leishmania amazonensis promastigote; assay: In vitro activity against L. amazonensis promastigotes (growth inhibition by cell counting; drugs alone and in checkerboard combination); assay type: cell-based; details: isolated drug; for IC50: 72 h, 25°C, ± SD; for IC90: promastigotes
# Protocol: Leishmania amazonensis MHOM/BR/75/Josefa strain was isolated from a human case of cutaneous leishmaniasis by Dr. Cesar A. Cuba, at University of Brasilia, Brazil ([Saraiva et al., 1983]; [Cuba et al., 1985]). These promastigote parasites were maintained in Warren’s medium, consisting of brain heart infusion (Gibco®), hemin (Sigma–Aldrich®), and folic acid (Sigma–Aldrich®), pH 7.2, supplemented with 10% of fetal calf serum (FCS – Invitrogen®) and incubated at 25°C.
# The same procedure was carried out with axenic amastigote forms, using 12-wells microplate. After incubation during 72 h, at 25 and 32°C for promastigote and axenic amastigote forms, respectively, viable cells were counted with hemocytometer supporting.
# Briefly, promastigotes, axenic and intracellular amastigotes were prepared even as previously described (see the section In vitro Activity against L. amazonensis) as well the macrophages and erythrocytes, according to the section Cytotoxicity and Hemolysis Assays. […] Thus, the compounds were singly evaluated in the first row and column and the checkerboard model supported the drug combination in the other wells. Next, the parasites were added and, after incubation, as described above, it was possible to determine the IC50 for the association. Finding the behavior of each association, the CI was calculated from the formula:
# CI=(IC50 compound A associated/IC50 compound A alone)+(IC50 compound B associated/IC50 compound B alone)
# CI values lower, equal and greater than one indicate, respectively, synergistic, additive and antagonistic profile of association tested, according established by [Chou and Talalay (1984)] and [Chou (2010)].
# (§2) Scanning electron microscopy was carried out to analyze the morphologic alterations on cell surface topography. […] After incubation for 72 h, at 25°C, the samples were fixed in 2.5% glutaraldehyde in 0.1 M sodium cacodylate buffer (Electron Microscopy Sciences – EMS®) for 24 h. It used poly-L-lysine (Electron Microscopy Sciences – EMS®) to promote the fixed parasites adhesion over coverslips, which were dehydrated with increasing concentration of ethanol (30, 40, 50, 60, 70, 80, 90, 95, 100% – Sigma–Aldrich®). The samples were critical-point-dried (Baltec SCD-030) in CO2 to remove any water trace, placed on appropriate stub to coat with gold alloy. The micrographs were obtained by analysis in Shimadzu SS-550 scanning electron microscope (SEM).
# [11] = system: peritoneal macrophages infected with L. amazonensis; assay: Nitric oxide measurement (DAF-FM DA) on infected macrophages; assay type: cell-based, BALB/c mice; details: IC50 and IC90, 48 h, 34°C
# Protocol: Furthermore, the activity of these drugs against L. amazonensis intracellular amastigotes was also evaluated. For this, intraperitoneal macrophages were harvested from the males BALB/c mice, by injection of cold phosphate-saline buffer (PBS) plus FCS 3% inner the peritoneal cavity. After centrifugation, a suspension of 5 × 10^5 macrophages in RPMI was placed on glass coverslips in 24-wells microplate and incubated during 2 h, at 37°C and 5% CO2 atmosphere, for cellular adhesion. After this period, the wells were washed and the macrophages were infected with L. amazonensis promastigotes in stationary phase (5–6 days) at a ratio of 7 parasites/1 mammalian cell, during 4 h, at 34°C and 5% CO2 tension and then, the tested compounds were added during 48 h ([Kaplum et al., 2016]). […] Then, a total of 200 macrophages were counted under light microscope, distinguishing infected cells and amastigote parasites. Thereby, the survival index (SI = infected cells percentage × amastigote average per infected macrophage) was calculated considering 100% of survival for the untreated negative control (NC). […]
# Promastigote forms and infected macrophages were incubated at 25°C for 72 h and 34°C for 48 h, respectively. […] Fluorescence was measured on fluorometer Perkin-Elmer Victor X3, at λex = 495 nm and λem = 515 nm.
# [12] = system: L. amazonensis promastigote; assay: Volume analysis of promastigote forms, flow cytometry (FSC-H); assay type: cell-based, Leishmania amazonensis; details: 24 h; miltefosine 173.32 μM; BZTS + miltefosine 13.86 μM + 37.78 μM; actinomycin D positive control
# Protocol: For these studies, the treated protozoa were incubated during 24 h, at 25°C.
# After to treat 1 × 10^7 promastigote forms with […] actinomycin D (positive control – Sigma–Aldrich®), isolated miltefosine and BZTS with miltefosine, the samples were washed two times with PBS 0.01 M and incubated. Cell volume was measured on BD FACSCalibur flow cytometer and 10,000 events were analyzed by CellQuest Pro software.
# [13] = Hemolysis assay (hemoglobin release; alone and checkerboard combination); details: sheep, 6% erythrocyte suspension from defibrinated sheep blood
# Protocol: as §3
# [14] = Cytotoxicity on J774.A1 macrophages (MTT; alone and checkerboard combination); assay type: cell-based, Murine; details: mouse, J774.A1 macrophages, pH 7.6, isolated drug, ± SD, read-out: CC50 J774.A1 Macrophage
# Source text: as §1
# [15] = system: L. amazonensis promastigote; assay: Phosphatidylserine exposure (Annexin-V-FITC / PI), flow cytometry; assay type: cell-based, Leishmania amazonensis; details: 24 h; miltefosine 173.32 μM; BZTS 13.86 μM + miltefosine 37.78 μM; CCCP 100 μM
# Protocol: For these studies, the treated protozoa were incubated during 24 h, at 25°C. […] At the end of 24 h, the samples were washed in 0.01 M PBS and resuspended in 100 μL of binding buffer (140 mM NaCl; 5 mM CaCl2; 10 mM HEPES-Na; pH 7.4), followed by the addition of 5 μL of the Annexin-V-FITC conjugated (Molecular Probes®). After 15 min of incubation, 400 μL of binding buffer and 50 μL of PI were added. […] Data acquisition (10,000 events) and analysis were carried out on flow cytometer BD FACSCalibur, equipped with CellQuest Pro software. Necrosis processes were identified by PI fluorescence in the cells while apoptotic cells were labeled with Annexin-V-FITC, regardless of the PI behavior.
# [16] = system: L. amazonensis promastigote; assay: Scanning electron microscopy of treated promastigotes; assay type: cell-based, Leishmania amazonensis; details: IC50 and IC90, 72 h, 25°C
# Protocol: as §2
# [17] = system: L. amazonensis promastigote; assay: Mitochondrial transmembrane potential (rhodamine 123), flow cytometry; assay type: cell-based, Leishmania amazonensis; details: 24 h; 2 × IC90
# Protocol: For these studies, the treated protozoa were incubated during 24 h, at 25°C. Parasites were prepared according 2.7.1 item, including positive control. […] At the same way described above, 10,000 events were evaluated on flow cytometer BD FACSCalibur and the data were analyzed by CellQuest Pro software.
# [18] = system: L. amazonensis promastigote; assay: Cell membrane integrity by propidium iodide, flow cytometry; assay type: cell-based, Leishmania amazonensis; details: 24 h, 25°C; miltefosine 173.32 μM; BZTS + miltefosine 13.86 μM + 37.78 μM; digitonin 40 μM
# Protocol: For these studies, the treated protozoa were incubated during 24 h, at 25°C. L. amazonensis promastigote cells were prepared according item 2.7. After incubation, the samples were washed in PBS 0.01 M and incubated with 50 μL of propidium iodide (PI – Sigma–Aldrich®) 2 mg/mL at 25°C, for 5 min. Membrane rupture allows the entrance of PI and its binding to cell DNA. Cell membrane integrity was measured according PI fluorescence, on BD FACSCalibur flow cytometer, in which 10,000 events were evaluated by CellQuest Pro software. Digitonin saponin 40 μM (Sigma–Aldrich®) was used as positive control and the fluorescence measurement were compared with NC fluorescence.
compound,measurement,setting,value
4-nitro benzaldehyde thiosemicarbazone derived from S-(-)-limonene [BZTS],Ultrastructure changes by TEM,[1],"mitochondrion alterations, like swelling and concentric membranes inner mitochondria"
same,Lipid droplets (Nile Red fluorescence) vs NC,"[2]; treated at IC50, 24 h",statistical significance
same,Lipid droplets (Nile Red fluorescence) vs NC,"[2]; treated at IC90, 24 h",statistical significance
same,CC50,[3],> 500 µM
same,"NO production, non-infected macrophages",[4],induced the NO production
same,IC50,[5],6.99 ± 1.22 µM
same,cell volume after BZTS treatment,[6],cell volume decrease
same,IC50,[7],8.04 ± 0.37 µM
same,CC50,[8],87.5 ± 9.07 µM
same,Annexin-V-FITC after BZTS treatment,[9],positive results
same,IC50,[10],4.16 ± 0.78 µM
same,IC90,[10],13.9 µM
same,"NO production, infected macrophages",[11],only in higher concentrations
"Cc1c2oc3c(C)ccc(C(=O)N[C@@H]4C(=O)N[C@H](C(C)C)C(=O)N5CCC[C@H]5C(=O)N(C)CC(=O)N(C)[C@@H](C(C)C)C(=O)O[C@@H]4C)c3nc-2c(C(=O)N[C@@H]2C(=O)N[C@H](C(C)C)C(=O)N3CCC[C@H]3C(=O)N(C)CC(=O)N(C)[C@@H](C(C)C)C(=O)O[C@@H]2C)c(N)c1=O [Actinomycin D] (I: T[dV]P[Sar][NMeV] / II: T[dV]P[Sar][NMeV]; ester I:1-I:C, II:1-II:C; linker I:N-II:N via Actinocin(9to1))",cells with volume reduction compared to untreated parasites,[12],51.95%
C[C@@H]1[C@H](O)[C@@H](C)/C=C/C=C/C=C/C=C/C=C/C=C/C=C/[C@H](O[C@@H]2O[C@H](C)[C@@H](O)[C@H](N)[C@@H]2O)C[C@@H]2O[C@](O)(C[C@@H](O)C[C@@H](O)[C@H](O)CC[C@@H](O)C[C@@H](O)CC(=O)O[C@H]1C)C[C@H](O)[C@H]2C(=O)O [Amphotericin B],CC50 at 2 h,[13],51.8 ± 4.34 µM
same,IC50,[7]; Leishmania amazonensis,0.43 ± 0.19 µM
same,CC50 at 48 h,[14],3.74 ± 0.59 µM
"N#CC(C#N)=NNc1cccc(Cl)c1 [CCCP, carbonyl cyanide 3-chlorophenylhydrazone]","cells in late apoptotic process, Annexin-V-FITC and PI fluorescence (upper right quadrant)",[15],39.98%
same,cells with only Annexin-V-FITC label (lower right quadrant),[15],5.25%
"CCCCCCCCCCCCCCCCOP(=O)([O-])OCC[N+](C)(C)C [Miltefosine, hexadecyl-phosphocholine]",Morphologic alterations by SEM,[16],changes on surface cell and reduction of the flagellum length
same,Ultrastructure changes by TEM,[1],Disruption of cytoplasmic membrane
same,Lipid droplets (Nile Red fluorescence) vs NC,"[2]; treated at IC90, 24 h",statistical significance
same,CC50 at 2 h,[13],21.4 ± 0.75 µM
same,Rh 123 fluorescence intensity (in words),[17],strong decrease
same,"NO production, non-infected macrophages",[4],induced the NO production
same,PI fluorescence (cells that lost plasma membrane integrity),[18],81.18%
same,IC50,"[5]; Leishmania amazonensis, Peritoneal macrophage",1.82 ± 0.2 µM
same,cells with volume reduction compared to untreated parasites,[12],10.45%
same,IC50,[7]; Leishmania amazonensis,0.79 ± 0.48 µM
same,CC50 at 48 h,[14],55.1 ± 1.97 µM
same,IC50,[10]; Leishmania amazonensis,20.8 ± 0.25 µM
same,IC90,[10]; Leishmania amazonensis,86.7 µM
same,"NO production, infected macrophages",[11],NO production increased from low concentration
